Source: US20220380347A1, “INHIBITORS OF CYSTEINE PROTEASES AND METHODS OF USE THEREOF” (Pardes Biosciences, Inc., priority 2020, published 2022)
Where two headings read alike, the source gives them in different places.

How the values were obtained:
[1] = target: COVID-19 (nCoV-2019, SARS-CoV2) Mpro (Severe acute respiratory syndrome coronavirus 2, UniProt P0DTD1); assay: COVID-19 (nCoV-2019, SARS-CoV2) Mpro enzymatic assay; type: biochemical; details: 25 nM Mpro, 25 μM substrate; read-out: COVID-19 Mpro IC50
229E Mpro = 229E Mpro (Human coronavirus 229E, UniProt P0C6X1); assay: 229E Mpro enzymatic assay (standard methods, SARS-CoV2 Mpro assay given as exemplary); type: biochemical, human coronavirus (HCov) 229E
Sequence of 229E Mpro (P0C6X1 2966-3267): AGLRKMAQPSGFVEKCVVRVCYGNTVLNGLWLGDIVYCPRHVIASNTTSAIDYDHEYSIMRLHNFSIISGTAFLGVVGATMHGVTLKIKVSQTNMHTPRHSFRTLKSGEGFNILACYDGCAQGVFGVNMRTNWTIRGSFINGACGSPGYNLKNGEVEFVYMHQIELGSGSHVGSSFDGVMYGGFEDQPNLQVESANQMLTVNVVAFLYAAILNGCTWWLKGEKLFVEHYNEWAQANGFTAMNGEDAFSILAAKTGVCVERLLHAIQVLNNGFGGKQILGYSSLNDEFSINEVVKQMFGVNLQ
Experimental: Compounds were assayed using standard methods to assess compound activity and IC50. As an exemplary for assessment of the SARS-COV2 Mpro, the C-His6-tagged Mpro (NC_045512) was cloned, expressed in E. coli and purified. The assay buffer contained 20 mM of Tris-HCl (pH 7.3), 100 mM of NaCl, 1 mM of EDTA, 5 mM of TCEP and 0.1% BSA. The final concentrations of the Mpro protein and substrate were 25 nM and 25 μM, respectively, in the Mpro enzymatic assay. The Km of the Mpro substrate for the protease was 13.5 μM.
The compounds were added to an assay plate. […] For no inhibition control (ZPE, zero percent effect), no compound was added.
IC50 values of compounds were calculated with the GraphPad Prism software using the nonlinear regression model of log(inhibitor) vs. response—Variable slope (four parameters). The inhibition activity was calculated using the formula below, IC50 values is calculated using the Inhibition % data.
Inhibition %=[(Sample-Average ZPE)/(Average HPE-Average ZPE)]*100%^#

HCov OC43 = assay: HCoV OC43 cytopathic effect (CPE) assay, CellTiter Glo; type: cell-based, human coronavirus (HCov) OC43
Experimental: Example 238: Evaluation of antiviral activity of compounds against human coronavirus (HCov) 229E and OC43 in the cytopathic effect (CPE) assays
Compounds were assayed using standard methods against multiple coronaviral strains, including HCoV 229E and OC43 strains. The antiviral activity of compounds was calculated based on the protection of the virus-induced CPE at each concentration normalized by the virus control.
Reference compound used was remdesivir; detection reagent: CellTiter Glo.) The CPE were measured by CellTiter Glo following the manufacturer's manual. The antiviral activity of compounds was calculated based on the protection of the virus-induced CPE at each concentration normalized by the virus control.
Cell viability was measured with CellTiter Glo.

[2] = Betacoronavirus 1, OC43, read-out: OC43 IC50 (uM) MEDIAN, median
[3] = read-out: OC43 IC50 (uM) MEDIAN, median

Compound	IC50 [1]	EC50 (229E Mpro; 229E Mpro EC50)	IC50 (HCov OC43; [2])	IC50 (HCov OC43; [3])	EC50 (229E Mpro; read-out: 229E Mpro EC50)
O=C1CCCCC1C(=O)N(c1ccc(S(F)(F)(F)(F)F)cc1)C(C(=O)NC1CCC(F)(F)CC1)c1cncc(F)c1 (stereo not shown) [Compound 1114]	10 to 30 µM	2 to 10 µM	> 30 µM		
CC1(C)CN(C#N)[C@@H](C(=O)N(c2ccc(C(C)(C)C)cc2)C(C(=O)NC2CCOCC2)c2cccnc2)CO1 (single isomer, unassigned) [1141 Isomer 2]	< 2 µM	< 2 µM		2 to 10 µM	
CN1CN(C(=O)C(c2cccnc2)N(C(=O)[C@H]2CCCN2C#N)c2ccc(C(C)(C)C)cc2)CC1=O (stereo partly drawn) [Compound 962, (2R)—N-(4-(tert-butyl)phenyl)-1-cyano-N-(2-(3-methyl-4-oxoimidazolidin-1-yl)-2-oxo-1-(pyridin-3-yl)ethyl)pyrrolidine-2-carboxamide]	10 to 30 µM	2 to 10 µM	10 to 30 µM		
CO[C@@H]1C[C@H](C(=O)N(c2ccc(S(F)(F)(F)(F)F)cc2)C(C(=O)NC(C)C2CCCCN2C(=O)OC(C)(C)C)c2cccnc2)N(C#N)C1 (single isomer, unassigned) [1303 Isomer 3]	< 2 µM	< 2 µM		< 2 µM	
CO[C@@H]1C[C@H](C(=O)N(c2ccc(S(F)(F)(F)(F)F)cc2)C(C(=O)NC2CCC(F)(F)CC2)c2cnccc2C(F)(F)F)N(C#N)C1 (single isomer, unassigned) [1202 Isomer 2]	< 2 µM			< 2 µM	< 2 µM
N#CN1CC(F)(F)C[C@@H]1C(=O)N(c1ccc(S(F)(F)(F)(F)F)cc1)C(C(=O)NC1CCC(F)(F)CC1)c1cccnc1 (single isomer, unassigned) [1087 Isomer 2]	2 to 10 µM			> 30 µM	< 2 µM
CO[C@@H]1C[C@H](C(=O)N(c2ccc(S(F)(F)(F)(F)F)cc2)C(C(=O)NC2CCC(F)(F)CC2)c2cnccc2C#N)N(C#N)C1 (stereo partly drawn) [Compound 1200, (2R,4R)-1-cyano-N-[l-(4-cyano-3-pyridyl)-2-[(4,4-difluorocyclohexyl)amino]-2-oxo-ethyl]-4-methoxy-N-[4-(pentafluoro-λ6-sulfanyl)phenyl]pyrrolidine-2-carboxamide]	< 2 µM	< 2 µM	< 2 µM		
CC(C)(C)c1ccc(N(C(=O)[C@@H]2CCCN2C#N)C(C(=O)NC2CCCCC2)c2cccnc2)cc1 (stereo partly shown) [Compound 130c]	> 30 µM	> 30 µM			
CC(C)(C)c1ccc(N(C(=O)C2CNC2)C(C(=O)NC2CCCCC2)c2cccnc2)cc1 (stereo not shown) [Compound 127]	> 30 µM	> 30 µM			
CC(C)(C)c1ccc(N(C(=O)[C@H]2CCCN2C#N)C(C(=O)NC2CCCCC2)c2cccnc2)cc1 (single isomer, unassigned) [Compound 130a]	< 2 µM	< 2 µM			
CC(C)(C)OC(=O)N1CCC[C@@H]1C(=O)N(c1ccc(C(C)(C)C)cc1)C(C(=O)NC1CCCCC1)c1cccnc1 (single isomer, unassigned) [Compound 131a]	> 30 µM	> 30 µM			
CC(C)(C)c1ccc(N(C(=O)c2scnc2C#N)C(C(=O)NC2CCCCC2)c2cccnc2)cc1 (stereo not shown) [Compound 899, N-(4-tert-butylphenyl)-4-cyano-N-[2-(cyclohexylamino)-2-oxo-1-(3-pyridyl)ethyl]thiazole-5-carboxamide]	> 30 µM				
CC(C)(C)c1ccc(N(C(=O)c2nccnc2C(N)=O)C(C(=O)NC2CCCCC2)c2cccnc2)cc1 (stereo not shown) [Compound 124a]	> 30 µM	> 30 µM			
CC(C)(C)c1ccc(N(C(=O)c2scnc2Cl)C(C(=O)NC2CCCCC2)c2cccnc2)cc1 (stereo not shown) [Compound 899a]	> 30 µM				
CC(C)(C)c1ccc(N(C(=O)c2nsnc2C(N)=O)C(C(=O)NC2CCCCC2)c2cccnc2)cc1 (stereo not shown) [Compound 123a]	> 30 µM	> 30 µM			
CC1(C(=O)N(c2ccc(C(C)(C)C)cc2)C(C(=O)NC2CCCCC2)c2cccnc2)CNC1 (stereo not shown) [Compound 129a]	> 30 µM	> 30 µM			
CC(C)(C)OC(=O)N1CCC[C@@H]1C(=O)N(c1ccc(C(C)(C)C)cc1)C(C(=O)NC1CCCCC1)c1cccnc1 (stereo partly shown) [Compound 131b]	> 30 µM				> 30 µM

Compound	IC50 [1]	EC50 (229E Mpro; 229E Mpro EC50)	IC50 (HCov OC43; [2])	IC50 (HCov OC43; [3])	EC50 (229E Mpro; read-out: 229E Mpro EC50)
CC(C)(C)c1ccc(N(C(=O)c2nsnc2C#N)C(C(=O)NC2CCCCC2)c2cccnc2)cc1 (stereo not shown) [Compound 122, N-(4-tert-butylphenyl)-4-cyano-N-[2-(cyclohexylamino)-2-oxo-1-(3-pyridyl)ethyl]-1,2,5-thiadiazole-3-carboxamide]					> 30 µM
CC(C)(C)c1ccc(N(C(=O)[C@@H]2CCCN2)C(C(=O)NC2CCCCC2)c2cccnc2)cc1 (single isomer, unassigned) [Compound 131c]	> 30 µM	> 30 µM			
CC(C)(C)c1ccc(N(C(=O)[C@H]2N(C#N)CC2(C)C)C(C(=O)NC2CCCCC2)c2cccnc2)cc1 (stereo partly shown) [Compound 136a]	> 30 µM	> 30 µM			
CC(C)(C)c1ccc(N(C(=O)c2cnc[nH]2)C(C(=O)NC2CCCCC2)c2cncnc2)cc1 (stereo not shown) [Compound 104, N-(4-tert-butylphenyl)-N-[2-(cyclohexylamino)-2-oxo-1-pyrimidin-5-yl-ethyl]-1H-imidazole-5-carboxamide]	2 to 10 µM				
CC(C)(C)c1ccc(N(C(=O)[C@H]2NCC2(C)C)[C@@H](C(=O)NC2CCCCC2)c2cccnc2)cc1 [Compound 136c]	> 30 µM	> 30 µM			
CC(C)(C)c1ccc(N(C(=O)c2cnc[nH]2)C(C(=O)NC2CCCCC2)c2ccc(C(F)(F)F)nc2Cl)cc1 (stereo not shown) [Compound 102a]	> 30 µM				
CC(C)(C)c1ccc(N(C(=O)c2cnc[nH]2)C(C(=O)NC2CCCCC2)c2ncc(Cl)nc2C#N)cc1 (stereo not shown) [Compound 110]	> 30 µM	> 30 µM			
CC(C)(C)OC(=O)N1CC(C(=O)N(c2ccc(C(C)(C)C)cc2)C(C(=O)NC2CCCCC2)c2cccnc2)C1 (stereo not shown) [Compound 126]	> 30 µM	> 30 µM			
NC(=O)c1nc(C2CC2)ccc1N(C(=O)c1cnc[nH]1)[C@@H](C(=O)NC1CCCCC1)c1cccnc1 [Compound 832]					2 to 10 µM
CC(C)(C)c1ccc(N(C(=O)[C@@H]2CCN2)[C@H](C(=O)NC2CCCCC2)c2cccnc2)cc1 [Compound 846]					< 2 µM
CC(C)(C)OC(=O)N1CC(C)(C(=O)N(c2ccc(C(C)(C)C)cc2)C(C(=O)NC2CCCCC2)c2cccnc2)C1 (stereo not shown) [Compound 129]	> 30 µM	> 30 µM			
CC(C)(C)c1ccc(N(C(=O)[C@H]2CCCN2C#N)C(C(=O)NC2CCCCC2)c2cccnc2)cc1 (single isomer, unassigned) [Compound 130b]	> 30 µM	2 to 10 µM			
CC(C)(C)c1ccc(N(C(=O)c2cnc[nH]2)C(C(=O)NC2CCCCC2)c2cccnc2Br)cc1 (stereo not shown) [Compound 100a]	> 30 µM				
N#CN1C[C@H]2C[C@H]2[C@@H]1C(=O)N(c1ccc(S(F)(F)(F)(F)F)cc1)C(C(=O)NC1CCC(F)(F)CC1)c1cncc(F)c1 (single isomer, unassigned) [Compound 1095b Isomer 2]	< 2 µM			< 2 µM	
CC(C)(C)c1ccc(N(C(=O)[C@@H]2CCCN2)C(C(=O)NC2CCCCC2)c2cccnc2)cc1 (stereo partly shown) [Compound 131d]	> 30 µM				> 30 µM
NC(=O)c1nc(C2CC2)ccc1N(C(=O)c1cnc[nH]1)[C@H](C(=O)NC1CCCCC1)c1cccnc1 [Compound 833]	2 to 10 µM	2 to 10 µM			
CC(C)(C)c1ccc(N(C(=O)[C@H]2NCC2(C)C)[C@H](C(=O)NC2CCCCC2)c2cccnc2)cc1 [Compound 136b]	> 30 µM	> 30 µM			
